The record followed here is US20060063785A1, “Substituted pyrazolo[1,5-a] pyrimidines and process for making same” (priority 2004, published 2006).

pIC50: −log10 of the molar value.

The test system of data set [1] is 80S14 (p21-deficient) cells. Put plainly: Determination of selectivity of compounds for p21-/- cells: IC50 in 80S14 cells (SRB). The class given is cell-based, human. The following applies: Cellular activity in 80S14 (p21-deficient) cells, SRB; class symbols; read-out: IC50 for 80S14. As to the method:
• 1. 80S14 (p21-deficient) cells were cultured in RPMI 1640 medium (Gibco/Invitrogen Life technologies) supplemented with 10% fetal bovine serum (FBS, Gibco) and 10 μg/ml gentamycin (Gibco). Cells were maintained at 37° C. under 7% CO2. • 2. Cells were plated at 6×10^4/ml (0.2 ml/well; 12,000 cells/well) in 96-well microtiter plates (Falcon or Corning/Costar) and incubated at 37° C. overnight (18-24 hours). • 3. 2-5 μl of the test agent-[200 μg/ml stock in 20% DMSO/20 mM HEPES, pH 7.5 (Gibco)] was added to each well to achieve a final concentration of 2-5 μg/ml. Cells were incubated with the test compounds for 5 days at 37° C. • 4. Surviving cells were fixed with 50 μl 50% trichloroacetic acid (Sigma; 10% final concentration) for 1 hour at 4° C. • 5. Plates were rinsed twice with water (0.3 ml per wash using MRD8 robot), and allowed to dry. • 6. Sulforhodamine B (SRB) (Sigma; 0.4% in 1% acetic acid, 50 μl per well; MRD8 robot) was added and plates kept at room temperature for 10 minutes. • 7. Excess dye was removed by washing with 1% acetic acid (3 times, 0.3 ml per wash; MRD8 robot) and allowed to dry. • 8. The dye was solubilized in Tris base (Sigma; 10 mM, 150 μl per well). Plates were kept at room temperature for 30 minutes to allow the dye to diffuse. • 9. Absorbance was measured at 540 nm. • 10. The percentage of cells surviving drug treatment relative to control wells (no drug) was determined. • 11. The difference in % cell survival between the two cell lines was calculated. • 12. Compounds producing a difference score of >50 were considered to be selective for the p21-deficient cells and were evaluated further. Determination of Selectivity of Compounds for p21−/− Cells: • 1. 80S14 cells were cultured as described above. • 2. Cells were seeded in 96-well microtiter plates at 12,000 cells/well (either 0.15 ml/well of 8×10^4 cells/ml suspension, or 0.2 ml/well of 6×10^4 cells/ml suspension). Plates were incubated at 37° C. overnight (18-24 hours). • 3. Serial dilutions of the test agent were added to each well. Dilutions were prepared either in 40% DMSO/20% methanol/20 mM HEPES, pH 7.5 (Gibco) or directly in growth medium. One of two dose ranges were used: 5 pM to 50 μM or 170 pg/ml to 10 μg/ml. Cells were incubated with the test compounds for 5 days at 37° C. • 4. Surviving cells were fixed with 50 μl 50% trichloroacetic acid (Sigma; 10% final concentration) for 1 hour at 4° C. • 5. Plates were rinsed extensively in water, and allowed to dry. • 6. Sulforhodamine B (Sigma; 0.4% in 1% acetic acid, 70 μl per well) was added and plates kept at room temperature for 10 minutes. • 7. Excess dye was removed by washing 5 times with 1% acetic acid and plates were allowed to dry. • 8. The dye was solubilized in Tris base (Sigma; 10 mM, 150 μl per well). Plates were placed on a titer plate shaker (Lab Line Instruments) for 5 minutes to allow the dye to diffuse. • 9. Absorbance was measured at 560 nm.
10. The drug concentration which inhibits cell proliferation by 50% relative to untreated controls (IC50) was determined from cytotoxicity curves.

Data set [2] concerns LoVo Colon cell line. Briefly: Cytotoxicity assay using LoVo colon cell line (SRB, IC50). It counts as cell-based. The settings on record: Cellular activity in LoVo cell; 4 days incubation, SRB assay; read-out: Inhibition of LoVo. As to the method: Cytotoxicity Assay Using LoVo Colon Cell Line: • 1. LoVo Colon cell lines was cultured in RPMI 1640 medium (Gibco/Invitrogen Life Sciences) supplemented with 10% fetal bovine serum (FBS, Gibco) and 50 μg/ml gentamicin (Gibco). Cells were maintained at 37° C. under 7% CO2. • 2. Cells were seeded in 96-well microtiter plates (Corning/Costar) in a volume of 0.15 ml of growth medium (4000 cells/well). Plates were incubated at 37° C. overnight (18-24 hours). • 3. Serial dilutions of the test agent were added to each well. Dilutions were prepared in growth medium. One of two dose ranges was used: 5 pM to 20 μM or […] to 10 μg/ml. Cells were incubated with the test compounds for 4 days at 37° C. • 4. Surviving cells were processed using the SRB asay, as described above.
5. The drug concentration that inhibits cell proliferation by 50% relative to untreated controls (IC50) was determined from cytotoxicity curves using the LSW Toolbox graphing application.
Background: The SRB assay estimates cell density from bound dye.

By melting point is commonly meant the temperature of the solid-liquid transition. In turn, `CCCCNC(=O)Nc1cccc(-c2ccnc3c(C(=O)c4cccs4)cnn23)c1` [Example 6, N-butyl-N′-{3-[3-(thien-2-ylcarbonyl)pyrazolo [1,5-a]pyrimidin-7-yl]phenyl}urea] registered a melting point of 158 to 160 °C. `O=C(c1ccco1)c1cnn2c(-c3cccc(-n4cccc4)c3)ccnc12` [Example 186, 2-Furanyl[7-[3-(1H-pyrrol-1-yl)phenyl]pyrazolo[1,5-a]pyrimidin-3-yl]-methanone] had a melting point of 204 to 206 °C. `O=C(Nc1cccc(-c2ccnc3c(C(=O)c4cccs4)cnn23)c1)c1ccncc1` [Example 201, N-{3-[3-(2-Thienylcarbonyl)pyrazolo[1,5-a]pyrimidin-7-yl]phenyl}isonicotinamide] showed a melting point of 212 to 215 °C. Same read-out and setting: the same measure for `O=C(Nc1cccc(-c2ccnc3c(C(=O)c4cccs4)cnn23)c1)c1ccccc1F` [Example 254, 2-Fluoro-N-{3-[3-(thien-2-ylcarbonyl)pyrazolo[1,5-a]pyrimidin-7-yl]phenyl}benzamide]: 190 to 191 °C; for `O=C(c1cccs1)c1cnn2c(-c3cccc(NCc4ccco4)c3)ccnc12` [Example 263, (7-{3-[(2-Furylmethyl)amino]phenyl}pyrazolo[1,5-a]pyrimidin-3-yl)(thien-2-yl)methanone]: 124 to 128 °C; for `O=C(c1cccs1)c1cnn2c(Cl)ccnc12` [Example 284, (7-Chloropyrazolo[1,5-a]pyrimidin-3-yl)(thien-2-yl)methanone]: 148 to 150 °C. Regarding `CC(CCNc1cccc(-c2ccnc3c(C(=O)c4cccs4)cnn23)c1)CC(C)(C)C` (stereo not drawn) [Example 321, Thien-2-yl(7-{3-[(3,5,5-trimethylhexyl]amino]phenyl}pyrazolo[1,5-a]pyrimidin-3-yl](thien-2-yl)methanone], the values for the pIC50 in data set [1] and in data set [2] were 5.00 to 6.00 and 6.00 to 7.00, respectively. For `O=C(c1cccs1)c1cnn2c(-c3cccc(NCC4CC=CCC4)c3)ccnc12` (stereo not drawn) [Example 324, (7-{3-[(cyclohex-3-en-1-ylmethyl)emnino]phenyl}pyrazolo[1,5-a]pyrimidin-3-yl)-(thien-2-yl)-methanone] the same measures were more than 6.00 and more than 7.00. For “(7-{3-[1-(Cyclobutylmethyl)-1H-pyrazol-3-yl]phenyl}pyrazolo[1,5-a]pyrimidin-3-yl)(thien-2-yl)methanone [Example 404]” the same measures were more than 6.00 and more than 7.00. Taken in the same sequence, the figures for “(7-{3-[1-(Pyridin-2-ylmethyl)-1H-pyrazol-3-yl]phenyl}pyrazolo[1,5-a]pyrimidin-3-yl)(thien-2-yl)methanone [Example 406]” were more than 6.00 and more than 7.00. For “(7-{3-[2-(2-Hydroxyethyl)-2H-tetraazol-5-yl]phenyl}pyrazolo[1,5-a]pyrimidin-3-yl)(thien-2-yl)methanone [Example 402]”, the figures for the pIC50 in data set [1] and in data set [2] were more than 6.00 and 6.00 to 7.00, respectively. Taken in the same sequence, the figures for “(7-{3-[2-(Pyridin-2-ylmethyl)-2H-tetraazol-5-yl]phenyl}pyrazolo[1,5-a]pyriridin-3-yl)(thien-2-yl)methanone [Example 397]” were more than 6.00 and 6.00 to 7.00. For “tert-Butyl 4-[2-oxo-2-({3-[3-(thien-2-ylcarbonyl)pyrazolo[1.5-a]pyrimidin-7-yl]phenyl}amino)ethyl]piperidine-1-carboxylate [Example 286]” the same measures were more than 6.00 and more than 7.00. Taken in the same sequence, the figures for “{7-[3-(1-Ethyl-1H-pyrazol-3-yl)phenyl]pyrazolo[1,5-a]pyrimidin-3-yl}(thien-2-yl)methanone [Example 407]” were 5.00 to 6.00 and 6.00 to 7.00. Take “{7-[3-(1H-Pyrazol-3-yl)phenyl]pyrazolo[1,5-a]pyrimidin-3-yl}(thien-2-yl)methanone [Example 403]”: the pIC50 in data set [1] is more than 6.00; in data set [2], more than 7.00.
